# Data from article PMC8233378, “Acyclic nucleoside phosphonates with adenine nucleobase inhibit Trypanosoma brucei adenine phosphoribosyltransferase in vitro” (Scientific Reports, 2021).
# B1: recombinant T. brucei APRT1 (Trypanosoma brucei brucei TREU927) (protein)
# chain: SLVEVLPNYFTLSKDSPLRKKFEKVYKWYSPAFSPHDVPRFAEVGNITENPEVMRGIRDFFVDRYKNLQQPITHILGFDSRGFLLGPMIAVELNVPFVLIRKANKIAGVIIKSEPYTKEYAAESEECMTVRFGSFDKNSRVVLIDDVIATGGTMLAGVQLVDACGATLVEVAGILGLTFLKGTQPAHTFAGGRYSNVPFVTLVDETVLSDENCGDPLHHKGSRIISCAEAKKLI
# What was measured:
# [1] = test system: Leishmania donovani APRT1; set-up: method as in PMID 11900545; details: substrate of Leishmania donovani APRT1; cited from earlier work
# [2] = test system: Normal human dermal fibroblasts (NHDF); assay: Cytotoxicity of the prodrug in human cells (CellTiter-Glo 2.0), NHDF; assay type: cell-based; details: 10 µM
# Experimental: (§1) Compound cytotoxicity was evaluated in Hela S3 cancer cells and non-tumor human dermal fibroblasts (NHDF). All cell lines were obtained from ATCC (Manassas, VA, USA). The cytotoxicity was assayed using CellTiter-Glo® 2.0 detection reagent (Promega, Madison, USA) according to the manufacturer’s protocol.
# HeLa S3 cells = assay: Cytotoxicity of the prodrug in human cells (CellTiter-Glo 2.0), HeLa S3; assay type: cell-based; details: HeLa S3, 10 µM
# Experimental: as §1
# T. brucei BSF cells = assay: Cell cycle analysis of treated trypanosomes (microscopy, flow cytometry with propidium iodide); assay type: cell-based, Trypanosoma brucei
# From the text: The inhibition of the growth of T. brucei BSF in HMI-11 medium in single micromolar EC50 values (Table 1) was somewhat surprising considering the dispensability of APRT enzymes for these cells. […] To get deeper insights into the in vivo action of ANPs on APRT enzyme we tested their cytotoxicity on wild type cells grown in HMI-11^adenine medium. In this medium, the cells rely on the activity of the APRT enzyme to produce AMP and other […]. […] To corroborate this observation, we also tested cells with induced ectopic expression of V5-tagged APRT1 in both types of media and in the presence of the selected ANPs. […] The changes in the distribution of different cell cycle stages within a population were further assessed by flow cytometry assaying the DNA content by staining the cells with propidium iodide (Fig. 8A).
# BFS trypanosomes in log phase were resuspended in HMI-11 medium to a density of 2 × 10^5 cells ml^−1. Test compounds at concentrations ranging from 1 to 16 µM were added to the cell suspension followed by 12 h incubation at 37 °C. The cell cycle analysis was performed as described previously. Briefly, approximately 2 × 10^6 cells were washed with PBS and fixed in 1 ml of 70% methanol in 1 × PBS and stored at 4 °C overnight. Following a PBS wash, samples were incubated with 10 µg/ml propidium iodide and 9.6 µg/ml of RNaseA at 37 °C for 45 min. Samples were analyzed on a FACS Canto II (BD) collecting 10,000 gated events.
# [3] = molecular target: recombinant T. brucei APRT1 (Trypanosoma brucei brucei, UniProt Q57V32); assay: APRT1 steady-state enzyme kinetics for substrates; details: substrate of T. brucei APRT1
# Experimental: To test if the newly synthesized ANPs with an adenine as a nucleobase can inhibit the activity of the APRT1 and APRT2, both enzymes were overexpressed in E. coli. […] First, we monitored the APRT1 enzyme activity by a continuous spectrophotometric assay measuring the conversion of adenine to AMP at 256 nm.
# The methodology was adapted from Ref.[6]. Briefly, the enzyme kinetics of APRT1 were measured by a continuous spectrophotometric assay measuring the conversion of adenine to AMP, at 256 nm. The concentration of enzyme in the assay was 140 nM, the concentration of PRib-PP was kept at 1 mM and the adenine concentration varied from 3.75 to 60 μM. The reaction was carried out using a 1.0 cm path length with a UV Visible spectrometer 1601 (Shimadzu) in the reaction buffer (0.1 M Tris, pH 8.4; 0.11 M MgCl2; at 25 °C). The initial velocity (V0 [µM/min]) was calculated using Beer–Lambert law for different concentration of the purine substrate molecules: A = Δε × L × c where A is the measured absorbance, Δε is constant 2100 M^−1 cm^−1 for adenine, c is a concentration of the product formed in one minute (V0) and L is the length of a cuvette. The Km, Vmax and kcat values were calculated using GraphPad Prism 9 according to Michaelis–Menten kinetics. […] The Ki values were calculated using non-linear regression in GraphPad Prism 9.
# [4] = substrate: Nc1ncnc2nc[nH]c12; assay: purified protein, by the assay type; details: other: substrate of T. brucei APRT1; pH 8.4; 25.0 °C
# From the text: The APRT1 was purified as an active recombinant enzyme from the soluble fraction. […] First, we monitored the APRT1 enzyme activity by a continuous spectrophotometric assay measuring the conversion of adenine to AMP at 256 nm.
molecule,measurement,setting,value
Nc1ncnc2[nH]cnc12 [adenine],Kcat,[1],17.9 s⁻¹
same,Km,[1],2.3 ± 1.1 µM
"CCOC(=O)[C@H](Cc1ccccc1)NP(=O)(CCN(CCN(CCP(=O)(N[C@@H](Cc1ccccc1)C(=O)OCC)N[C@@H](Cc1ccccc1)C(=O)OCC)CCP(=O)(N[C@@H](Cc1ccccc1)C(=O)OCC)N[C@@H](Cc1ccccc1)C(=O)OCC)CCn1cnc2c(N)ncnc21)N[C@@H](Cc1ccccc1)C(=O)OCC [compound 28, Hexa-(ethyl L-phenylalanine) prodrug of (2-((2-((2-(adenine-9-yl)ethyl)(2-phosphonoethyl)amino)ethyl)(2-phosphonoethyl)amino)ethyl)phosphonic acid]",effect on viability of NHDF (in words),[2],toxic
same,Cytotoxicity of prodrug: NHDF viability,[2]; NHDF,4%
same,Cytotoxicity of prodrug: HeLaS3 viability,HeLa S3 cells,94%
same,direct microscopic observation of exposed T. brucei cells,T. brucei BSF cells,problems in the cell cycle
"O=P(O)(O)OC[C@H]1O[C@H](OP(=O)(O)OP(=O)(O)O)[C@H](O)[C@@H]1O [phosphoribosyl pyrophosphate (PRib-P), 5-phospho-α-D-ribosyl-1-pyrophosphate]",Kcat,[3],1.8 s⁻¹
same,Km,[3],162 ± 21.6 µM
same,Km,[1],25.1 ± 5.9 µM
B1,Km,[4],8.7 ± 1.9 µM
same,kcat,[4],0.82 s⁻¹
